The source of these data is US7541464B2, “7-azaindoles, pharmaceutical compositions and their therapeutic applications” (Sanofi-Aventis Deutschland GmbH, priority 2004, dated 2009).

SMILES strings stand for the structures. Read-outs that look alike come from different tables or passages of the source.

Test [1] deals with PPARdelta. The conditions noted are these: obese, insulin resistant rhesus monkeys; cited from earlier work.
Test [2] deals with PPARdelta. The conditions noted are these: diabetic animal model; cited from earlier work.
In another test the target is T1, human PPARalpha (Homo sapiens, UniProt Q07869).
T1 construct: amino acids S167-Y468; expressed in transfected cells; plasmid pcDNA3
T1 sequence (Q07869 167-468): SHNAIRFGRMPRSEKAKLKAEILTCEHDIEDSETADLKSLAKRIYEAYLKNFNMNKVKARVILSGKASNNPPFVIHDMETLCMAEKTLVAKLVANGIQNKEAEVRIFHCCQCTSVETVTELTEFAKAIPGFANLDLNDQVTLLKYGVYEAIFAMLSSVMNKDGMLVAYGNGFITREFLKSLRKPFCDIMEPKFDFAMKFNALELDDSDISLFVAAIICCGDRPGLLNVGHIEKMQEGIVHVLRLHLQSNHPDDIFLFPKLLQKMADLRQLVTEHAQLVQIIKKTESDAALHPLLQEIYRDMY
The experiment in a line: Cellular PPARalpha assay (HEK luciferase reporter cell line). It counts as cell-based. The conditions noted are these: PPARalpha reporter cell line (HEK, GR-GAL4-humanPPARalpha-LBD). As for the experimental part:
Determination of EC50 Values of PPAR Agonists In the Cellular PPARalpha Assay
The potency of substances which bind to human PPARalpha and activate it in an agonistic manner is analyzed using a stably transfected HEK cell line (HEK=human embryo kidney) which is referred to here as PPARalpha reporter cell line. It contains two genetic elements, a luciferase reporter element (pdeltaM-GAL4-Luc-Zeo) and a PPARalpha fusion protein (GR-GAL4-humanPPARalpha-LBD) which mediates expression of the luciferase reporter element depending on a PPARalpha ligand. The stably and constitutively expressed fusion protein GR-GAL4-humanPPARalpha-LBD binds in the cell nucleus of the PPARalpha reporter cell line via the GAL4 protein portion to the GAL4 DNA binding motifs 5′-upstream of the luciferase reporter element which is stably integrated in the genome of the cell line. There is only weak expression of the luciferase reporter gene in the absence of a PPARalpha ligand if fafty acid-depleted fetal calf serum (cs-FCS) is used in the assay. PPARalpha ligands bind and activate the PPARalpha fusion protein and thereby stimulate the expression of the luciferase reporter gene. The luciferase which is formed can be detected by means of chemiluminescence via an appropriate substrate. […]
The activity of PPARalpha agonists is determined in a 3-day assay which is described below: […]

In another test the target is T2, human PPARdelta (Homo sapiens, UniProt Q03181).
T2 construct: amino acids S139-Y441; expressed in transfected cells; plasmid pcDNA3
T2 sequence (Q03181 139-441): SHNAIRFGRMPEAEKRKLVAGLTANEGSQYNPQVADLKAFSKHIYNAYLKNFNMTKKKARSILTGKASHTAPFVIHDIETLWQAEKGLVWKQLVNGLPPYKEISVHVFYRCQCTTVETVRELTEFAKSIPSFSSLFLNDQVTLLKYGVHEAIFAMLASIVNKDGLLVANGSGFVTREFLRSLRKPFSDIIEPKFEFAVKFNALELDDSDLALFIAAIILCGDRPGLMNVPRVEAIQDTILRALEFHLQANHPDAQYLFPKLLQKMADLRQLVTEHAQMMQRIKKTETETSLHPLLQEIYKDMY
The experiment in a line: Cellular PPARdelta assay (HEK luciferase reporter cell line). The conditions noted are these: PPARdelta reporter cell line (HEK, GR-GAL4-humanPPARdelta-LBD). It counts as cell-based. As for the experimental part:
The potency of substances which bind to human PPARdelta and activate it in an agonistic manner is analyzed using a stably transfected HEK cell line (HEK=human embryo kidney) which is referred to here as PPARdelta reporter cell line. In analogy to the assay described for PPARalpha, the PPARdelta reporter cell line also contains two genetic elements, a luciferase reporter element (pdeltaM-GAL4-Luc-Zeo) and a PPARdelta fusion protein (GR-GAL4-humanPPARdelta-LBD) which mediates expression of the luciferase reporter element depending on a PPARdelta ligand. The stably and constitutively expressed fusion protein GR-GAL4-humanPPARdelta-LBD binds in the cell nucleus of the PPARdelta reporter cell line via the GAL4 protein portion to the GAL4 DNA binding motifs 5′-upstream of the luciferase reporter element which is stably integrated in the genome of the cell line. […] The luciferase which is formed can be detected by means of chemiluminescence via an appropriate substrate. […]
The activity of PPARdelta agonists is determined in a 3-day assay in exact analogy to the procedure already described for the PPARalpha reporter cell line except that the PPARdelta reporter cell line and a specific PPARdelta agonist was used as a standard to control test efficacy.
In general terms: In a reporter assay the amount or activity of a reporter protein is the signal.

Test [3] has as its system PPARdelta/PPARalpha. The conditions noted are these: rhesus and cynomolgus monkeys; cited from earlier work.
For test [4], the system named is PPARdelta/PPARalpha. The conditions noted are these: two weeks clinical trials in healthy volunteers; cited from earlier work.

For the compound `Cc1cc(SCc2sc(-c3ccc(C(F)(F)F)cc3)nc2C)ccc1OCC(=O)O` [GW501516], in the test with PPARdelta [1], the HDL-cholesterol entry is on record as “raises”, the “plasma LDL-cholesterol” value is “decreases”, the plasma insulin levels result is given as “decreases” and the plasma triglycerides entry was “decreases”.
As for `CCCc1c(OCCCOc2ccc(OCC(=O)O)cc2)ccc(C(C)=O)c1O` [Example L-165041], the plasma cholesterol result in the test on PPARdelta [2] is on record as “raises plasma cholesterol”.
As usually defined, the EC50 is the concentration needed to bring the measured effect to its halfway point. `CCCCc1nc(-c2ccc(C(F)(F)F)cc2)sc1Cn1ccc2c(CCC)c(OCC(=O)O)cnc21` [Example 2, {1-[4-Butyl-2-(4-trifluoromethyl-phenyl)-thiazol-5-ylmethyl]-4-propyl-1H-pyrrolo[2,3-b]pyridin-5-yloxy}-acetic acid]: the figures for the 50% effective concentration (EC50) on human PPARalpha and on human PPARdelta were 320 nM and 140 nM, respectively.
Consider `CCCCc1nc(-c2ccc(C(F)(F)F)cc2)sc1Cn1ccc2cc(OCC(=O)O)cnc21` [Example 1, {1-[4-Butyl-2-(4-trifluoromethyl-phenyl)-thiazol-5-ylmethyl]-1H-pyrrolo[2,3-b]pyridin-5-yloxy}-acetic acid], for which the EC50 on human PPARalpha came to 40 nM; on human PPARdelta, 470 nM.
For `CCCc1c(OCCCSc2nnc(SCC(=O)O)s2)ccc(C(C)=O)c1O` [YM-16638], the plasma lipids entry in the test on PPARdelta/PPARalpha [3] is “significantly lowers plasma lipids”; with PPARdelta/PPARalpha [4], “acts in a similar manner”.
